Reference: patent US9205128B2, “Method for inhibiting HIV replication in mammal and human cells” (priority 2010, dated 2015)
No end group written: not given here.

Columns and labels:
HIV-1 [1] = details: PBMCs of infected individuals treated ex vivo; 15d-PGJ2 at 5 μM; vs untreated cells
Method: PBMCs were isolated from whole blood of HIV-1 infected individuals by Ficoll density gradients. […] Replication was evaluated by determining the p24 antigen concentration on culture supernatants by the ELISA method.

HIV-2 CBL-20 strain = assay: HIV-2 replication in pre-stimulated PBMCs, p24; type: cell-based; details: 7 days
Method: PBMCs were isolated from whole blood of healthy individuals by using Ficoll density gradients. […] Cells were subsequently maintained in PHA-free medium and seeded at 150 000 cells per well in 96-well plates. After 24 h, peptides were added at different concentrations and the cultures were infected with the CBL-20 HIV-2 strain. The cultures were kept for 7 days, being changed every 3 days the medium and the peptides added. Cultures were harvested and supernatants collected to evaluate the presence of the p24 viral protein.

vimentin = molecular target: T1, vimentin (Homo sapiens, UniProt P08670); assay: Western blot of vimentin in MT4 cells incubated with peptides; type: cell-based; details: 50 μM peptide, 24 h
T1 construct: these proteins are endogenous cellular proteins rather than viral; endogenous in cells; host or cells: MT4 cell line (untransduced, shRNA-transduced MT4vim(s), or peptide-treated)
Method: The MT4 cell line was incubated at 50 μM of each peptide for 24 h. The vimentin protein was detected by the western blot technique. Cellular extracts were resuspended in 1% sodium dodecyl sulphate (SDS) and applied in a 10% polyacrylamide gel, being further transferred to a Hybond-P […] membrane. For immunoidentification purposes, anti-vimentin and anti-β actin (as control) antibodies were used. An anti-mouse IgG antibody-peroxidase conjugate was used as secondary antibody. The activity of the peroxidase enzyme was visualized by using diaminobenzidine in the presence of hydrogen peroxide and PBS.

HIV-1 [2] = assay: Total virus challenge of MT4 cells, p24 antigen ELISA; type: cell-based; details: HIV-1 Bru, m.o.i. 0.01, 5-day incubation
vimentin protein = details: Stamatakis et al. 2006; cited from earlier work
[3] = tested on: cytoskeletal intermediate filaments (IFs); assay: IFs structural analysis by transmission electron microscopy; type: cell-based, human; details: treated patients (two with SEQ ID No. 1, three with SEQ ID No. 2)
Method: Firstly, MT4vim(s), MT4K-10(s) and MT4 cells were fixed in 3.2% glutaraldehyde for 1 h at 4° C. and then fixed in 2% osmium tetroxide for 1 h at 4° C. They were subsequently washed with 0.1 M phosphate buffered saline (PBS), pH 7.2, and dehydrated at increasing ethanol concentrations (30, 50, 70 and 100%) for 10 min each at 4° C. Inclusion was carried out and ultrathin 40-50 nm-width sections were taken in an ultramicrotome (NOVA, LKB), which were placed on 400-orifices nickel trays. Once the ultrathin cuts were taken and placed on the trays, they were contrasted with saturated uranyl acetate and lead citrate, and further examined under a JEOL JEM 2000 EX (JEOL) microscope. Five microphotographs were analyzed at different magnifications. MT4 cell intact IFs are shown in FIG. 5A, meanwhile these structures appeared shortened in MT4vim(s) MT4K-10(s) cells (FIGS. 5B and C, respectively). […] Inhibition of the viral replication was observed under these conditions. Vimentin or keratin-10 proteins were identified at IFs by immunomicroscopy.
IFs structure was analyzed by transmission electron microscopy, following the methodology described in Example 3.
IFs structures were analyzed by transmission electron microscopy, following the methodology described in Example 3. […]

HIV-1 [4] = details: 150 mg per day, 6 months follow-up; two of eight patients (both formulations pooled)
MT4 cells = assay: Cellular penetration of peptides by flow cytometry; type: cell-based, human; details: 5-40 μM, 15, 30 and 60 min
Method: HeLa CD4+ cells were seeded in RPMI medium supplemented at 10% FBS and incubated until reaching 60% confluence of the monolayer. MT4 cells were seeded at 50 000 cells per well in RPMI medium at 10% FBS. Peptides identified as SEQ ID No. 1 and SEQ ID No. 3 were resuspended in injection water and evaluated at 5, 10, and 40 μM concentrations. Peptides were incubated for […] at 37° C. under a 5% CO2 atmosphere, and penetration was evaluated after 15, 30 and 60 min. After each period of time, cells were harvested and immediately analyzed by flow cytometry. Three replicates were analyzed per experimental variant.

T1 sequence (P08670 whole entry): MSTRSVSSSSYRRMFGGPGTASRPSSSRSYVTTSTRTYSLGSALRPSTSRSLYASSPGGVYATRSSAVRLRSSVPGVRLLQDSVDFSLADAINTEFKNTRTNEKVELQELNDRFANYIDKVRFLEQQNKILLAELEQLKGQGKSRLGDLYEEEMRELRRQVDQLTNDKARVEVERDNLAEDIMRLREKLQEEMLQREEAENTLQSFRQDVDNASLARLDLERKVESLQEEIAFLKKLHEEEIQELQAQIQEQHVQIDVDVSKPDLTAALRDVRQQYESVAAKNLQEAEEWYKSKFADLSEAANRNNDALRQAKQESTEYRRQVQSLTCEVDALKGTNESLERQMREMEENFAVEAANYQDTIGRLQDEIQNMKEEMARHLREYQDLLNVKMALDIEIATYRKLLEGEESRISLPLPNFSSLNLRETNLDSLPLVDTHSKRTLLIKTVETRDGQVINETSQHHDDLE

| Compound | % of HIV-1 inhibition (HIV-1 [1]) [%] | HIV-2 replication (HIV-2 CBL-20 strain) | vimentin band intensity (vimentin) | further results |
| --- | --- | --- | --- | --- |
| KVELQELNDRFANYIDKVRF [Peptide 3] | 85.3 |  |  |  |
| RVTQMNLNDRLASLYDKVHYRIKPTFRRLKWKYKGKFW [Peptide 9] | 81.3 | inhibited HIV-2 replication in a dose-dependent manner | decreased intensity |  |
| CCCCC/C=C/C=C1/C(=O)C=C[C@@H]1C/C=C\CCCC(=O)O [Peptide 15d-PGJ2, prostaglandin cyclopentane 15 deoxy-Δ-^12,14-PGJ2] | 80.1 |  |  | HIV replication (HIV-1 [2]): inhibits the HIV replication in vitro; binding to vimentin (vimentin protein): binds to the vimentin protein |
| RVTQMNLNDRLASLYDKVRALEESNYELEGKIKEW [Peptide 8] | 86.7 | inhibited HIV-2 replication in a dose-dependent manner | decreased intensity |  |
| DMEIATYRTLLEGEESRM [Peptide 2] | 81.1 | inhibited HIV-2 replication in a dose-dependent manner |  | IFs structure [3]: shortened; viral load after treatment (HIV-1 [4]): undetectable |
| RVTQMNLNDRLASLYDKV [Peptide 1] | 89.3 |  |  | penetration into cells (MT4 cells): able to penetrate by their own into the MT4 cells |
